{"source": "patent US20200390909A1", "about": "“DRUG FRAGMENT IMAGING AGENT CONJUGATES” (The Board of Trustees of the Leland Stanford Junior …, priority 2018, published 2020)", "key": {"breast tumor": {"test_system": "breast tumor", "test": "NIRF imaging of breast tumor after oral gavage of systemic functional dye", "assay_type": "in vivo, mouse", "protocol": "FIG. 6A-6D. Highlighting a breast tumor following oral administration of an exemplary systemic functional dye (Compound (8), SU780). FIG. 6A NIRF imaging of the intact mouse 24 h post oral gavage of SU780.\nA wild type with an unidentified spontaneous flank tumor received an oral gavage of Compound (8) (SU780) (0.4 mg/kg). The following day, the animal was sacrificed, and the tumor was subjected to NIRF imaging.\nShown in FIG. 6 is the highlighting of a breast tumor following oral administration of the systemic functional dye Compound (8) (SU780)."}, "[1]": {"conditions": "systemically administered, clinical optical contrast agent; cited from earlier work"}}, "data": [{"smiles": "CCCN1/C(=C/C=C2\\CCCC(/C=C/C3=[N+](CCC)c4ccccc4C3(C)C)=C2Nc2ccc(NC(=O)CN3CCOCC3)cc2)C(C)(C)c2ccccc21", "note": "[Compound (8)]", "values": [{"measurement": "localisation in H&E processed tumor section", "setting": "breast tumor; after tissue processing for H&E", "value": "highlights mainly epithelial cancer cells"}, {"measurement": "fluorescence of residual tumor tissue in resection bed (image-guided resection)", "setting": "breast tumor; after tumor resection, oral gavage", "value": "residual tumor tissue was fluorescing in the resection bed"}, {"measurement": "highlighting of tumor by NIRF imaging after oral administration", "setting": "breast tumor; mouse with spontaneous flank (breast) tumor, oral gavage 0.4 mg/kg, following day, resected tumor", "value": "highlights the tumor"}, {"measurement": "NIRF signal at tumor margin / tumor infiltration into normal tissue (tissue section)", "setting": "breast tumor; oral gavage 0.4 mg/kg, 0.4 mg/kg", "value": "perfect correlation with tumor infiltration into normal tissues"}, {"measurement": "NIRF signal at tumor margin / tumor infiltration into normal tissue (tissue section)", "setting": "breast tumor; oral gavage 0.4 mg/kg, listed as SU780, 0.4 mg/kg", "value": "highlights the finger-like infiltration of the breast cancer cells into normal mammary fat pad"}]}, {"smiles": "CC1(C)C(/C=C/C2=C(Oc3ccc(C[C@H](NC(=O)c4ccc(NCc5cnc6nc(N)[nH]c(=O)c6n5)cc4)C(=O)[O-])cc3)C(=C/C=C3\\N(CCCCS(=O)(=O)[O-])c4ccc(S(=O)(=O)[O-])cc4C3(C)C)/CCC2)=[N+](CCCCS(=O)(=O)[O-])c2ccc(S(=O)(=O)[O-])cc21.[H+].[H+].[H+].[H+]", "note": "[OTL38]", "values": [{"measurement": "TBR", "setting": "[1]", "value": 4.4}]}]}
